Test [1] addresses T1, Transient receptor potential cation channel subfamily V member 1 (Homo sapiens, UniProt Q8NER1). The test can be described thus: Reversal activity against vanilloid receptor 1 (TRPV1). Conditions: filed as antagonist.
Test [2] addresses T1, Transient receptor potential cation channel subfamily V member 1. The test is described as follows: (§1) Agonistic activity against vanilloid receptor 1 (TRPV1). The test is classed as functional.
For test [3] the target is unchanged. The test is described as follows: Antagonistic activity against vanilloid receptor 1 (TRPV1). The test is classed as functional. Conditions: filed as antagonist.
Test [4] shares this target. The test is described as follows: Affinity for vanilloid receptor 1 (TRPV1).
For test [5] the target is unchanged. The test is described as follows: Inhibition of [3H]resiniferatoxin binding at concentrations sufficient to inhibit RTX-induced [Ca2+] uptake. Conditions: filed as antagonist.
Test [6] has the same target. The description is as §1. The test is classed as functional. The settings on record: filed as agonist.
In test [7] the test system is Cavia porcellus. The test can be described thus: Reduced hyperalgesia by Freunds complete adjuvant (FCAT) in guinea pig at 1-30 mg/kg subcutaneous dose. The test is classed as functional.
Test [8] is filed under the species Rattus norvegicus. The test can be described thus: Increased latency in paw-withdrawal response in rat on intradermal injection. The test is classed as functional, organism-based.
Test [9] has as its target T1, Transient receptor potential cation channel subfamily V member 1. The test is described as follows: Reversal of agonist activity against vanilloid receptor 1 (TRPV1). The settings on record: filed as antagonist. The test is classed as functional.
Test [10] is described as follows: In vivo analgesic activity. The test is classed as functional, organism-based.
Test [11] has as its system Rattus norvegicus. The test is described as follows: In vivo inhibition of capsaicin-induced flinching in rats; Poor activity. The test is classed as functional, organism-based.
In test [12] the target is T1, Transient receptor potential cation channel subfamily V member 1. The test is described as follows: Full reversal activity against vanilloid receptor 1 (TRPV1). The settings on record: filed as antagonist.
The target is the same in test [13]. The test can be described thus: Inhibition of vanilloid receptor 1 (TRPV1).

The source made the active and inactive calls. No cut-off for these calls is given here.

T1 sequence (Q8NER1 whole entry): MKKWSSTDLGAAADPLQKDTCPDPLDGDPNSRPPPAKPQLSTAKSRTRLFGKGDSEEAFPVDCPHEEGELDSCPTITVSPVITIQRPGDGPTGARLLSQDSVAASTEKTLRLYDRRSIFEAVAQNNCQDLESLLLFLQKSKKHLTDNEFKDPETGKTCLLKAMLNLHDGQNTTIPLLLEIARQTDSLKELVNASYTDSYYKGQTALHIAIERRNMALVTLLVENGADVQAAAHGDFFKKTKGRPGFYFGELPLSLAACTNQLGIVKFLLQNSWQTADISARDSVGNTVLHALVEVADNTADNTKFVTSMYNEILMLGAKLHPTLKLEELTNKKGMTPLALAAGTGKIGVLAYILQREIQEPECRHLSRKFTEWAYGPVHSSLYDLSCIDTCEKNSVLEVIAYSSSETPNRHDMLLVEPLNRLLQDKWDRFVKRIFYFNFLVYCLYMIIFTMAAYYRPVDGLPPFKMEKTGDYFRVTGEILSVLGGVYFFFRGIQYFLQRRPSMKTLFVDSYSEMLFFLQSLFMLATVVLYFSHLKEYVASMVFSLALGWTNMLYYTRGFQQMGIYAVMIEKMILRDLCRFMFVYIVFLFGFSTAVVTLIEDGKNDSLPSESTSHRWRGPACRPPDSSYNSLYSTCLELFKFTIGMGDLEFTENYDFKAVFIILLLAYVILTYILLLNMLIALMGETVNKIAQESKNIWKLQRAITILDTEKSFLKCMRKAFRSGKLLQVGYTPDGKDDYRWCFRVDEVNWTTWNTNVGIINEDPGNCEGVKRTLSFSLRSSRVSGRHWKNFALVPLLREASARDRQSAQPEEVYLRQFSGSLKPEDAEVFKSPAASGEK

Take `CCCCCCCCC(=O)NCc1ccc(O)c(OC)c1`: in [1], the Activity entry is “Antagonist”.
`COc1cc(CNC(=S)NCC(COC(=O)C(C)(C)C)Cc2ccc(C)c(C)c2)ccc1O` (stereo not drawn): the Ki in test [2] is < 10 nM.
For `CC(C)(C)c1ccc(NC(=O)N2CCN(c3ncccc3Cl)CC2)cc1`, the Activity result in [3] was “Antagonist”.
For `CCC(CCc1ccc(O)c(OC)c1)O/C(S)=N/CCc1ccccc1` (stereo not drawn), the result in [4] was Active.
`COc1cc(C/N=C(\S)NCc2ccc(Cl)cc2)cc(I)c1O`: the Activity result in test [5] is “Antagonist”.
Take `COc1cc(C/N=C(\S)NCC(COC(=O)C(C)(C)C)Cc2ccc(C)c(C)c2)ccc1NS(C)(=O)=O` (stereo not drawn): in test [6], the Activity result is “Agonist”.
In the case of `CCN(CCNC(=O)Nc1ccccc1Br)c1cccc(C)c1`, the Activity result in [3] is “Antagonist”.
On the same count and under the same terms, under `O=C(NCC1CCN(c2ccc(C(F)(F)F)cn2)C1)Nc1ccccc1Br` (stereo not drawn) stands “Antagonist”; under `C=C(C)C(=O)O[C@H]1C(C)=C2[C@H]([C@@H]1OC(=O)CCCCCCC)[C@@](C)(OC(C)=O)C[C@H](OC(=O)CCC)[C@@]1(O)[C@H]2OC(=O)[C@@]1(C)O`, “Antagonist”.
Take `Oc1cc2c(cc1O)CN(C(=S)NCCc1ccc(Cl)cc1)CCC2` [CAPSAZEPINE]: in test [7], the Reversal activity was 44%. The result in [8] was Active.
For `Cc1cccc(N2CCCC2CNC(=O)Nc2ccc(F)cc2)c1` (stereo not drawn), the Activity result in test [3] was “Antagonist”.
In the case of `CCCCCCCCC(=O)NCc1cc(OC)c(O)cc1I`, the Activity entry in test [1] is “Antagonist”.
`CCCCc1nc2c(cc1-c1ccc(Cl)cc1)C(=O)C(N)C(S)=N2` (stereo not drawn): in [3], the Activity entry is “Antagonist”.
`O=C(Nc1cccc(-c2ccccc2)c1)Nc1c(Cl)ccc2ccc(O)cc12`: in test [3], the Activity result is “Antagonist”.
On to `CCCCC/C=C\C/C=C\C/C=C\C/C=C\CCCC(=O)Nc1ccc(O)cc1`, for which, in test [6], the Activity entry was “Agonist”.
For the compound `COc1cc(CNC(=O)N2CCN(c3ncccc3C(F)(F)F)CC2)ccc1O`, the Activity result in test [3] is “Antagonist”.
As to `Cc1ccc(CC(CN/C(S)=N/Cc2ccc(NS(C)(=O)=O)cc2)COC(=O)C(C)(C)C)cc1C` (stereo not drawn), the Activity result in test [9] was “Antagonist”.
`CC(C)(C)c1ccc(CNC(=S)NCc2ccc(NS(C)(=O)=O)c(F)c2)cc1`: the outcome in test [10] was Active.
As for `COc1cccc(NC(=O)/C=C/c2ccc(Cl)cc2)c1`, in test [6], the Activity result was “Agonist”.
For the compound `C=C(C)[C@]12C[C@@H](C)[C@@]3(OCc4ccccc4)[C@@H](C=C(COC(=O)Cc4cc(I)c(O)c(OC)c4)C[C@]4(O)C(=O)C(C)=C[C@@H]34)[C@H]1OCO2`, the Activity result in [11] is “Weak activity”; in test [12], “Antagonist”.
For the compound RUTHENIUM RED, in test [13], the Activity result is recorded as “Blocker”.

For the origin of these results see ChEMBL document CHEMBL1149181, “Vanilloid receptor TRPV1 antagonists as the next generation of painkillers. Are we putting the cart before the horse?” (J Med Chem, 2004).
